Data: patent US20250000865A1, “COMPOUND FOR REDUCING URIC ACID LEVELS” (NEWSOARA BIOPHARMA CO., LTD., priority 2021, published 2025)

Tested on: healthy subjects
Assay: Phase I clinical trial, multiple-dose groups (once a day, 7 consecutive days): uric acid index before and after treatment
Assay type: in vivo, human
Settings: for Uric acid (UA) Mean (standard deviation) / Uric acid (UA) Median / Uric acid (UA) Minimum value / Uric acid (UA) maximum value / Uric acid (UA) Changes over baseline at last visit (on day 14), Mean (standard deviation) / Uric acid (UA) Changes over baseline at last visit (on day 14), Median / Uric acid (UA) Changes over baseline at last visit (on day 14), Minimum value / Uric acid (UA) Changes over baseline at last visit (on day 14), maximum value / Uric acid (UA) Changes over baseline on day 2, Mean (standard deviation) / Uric acid (UA) Changes over baseline on day 2, Median / Uric acid (UA) Changes over baseline on day 2, Minimum value / Uric acid (UA) Changes over baseline on day 2, maximum value / Uric acid (UA) Changes over baseline on day 11, Mean (standard deviation) / Uric acid (UA) Changes over baseline on day 11, Median / Uric acid (UA) Changes over baseline on day 11, Minimum value / Uric acid (UA) Changes over baseline on day 11, maximum value / Uric acid (UA) Changes over baseline on days 4-6, Mean (standard deviation) / Uric acid (UA) Changes over baseline on days 4-6, Median / Uric acid (UA) Changes over baseline on days 4-6, Minimum value / Uric acid (UA) Changes over baseline on days 4-6, maximum value: N = 9
Protocol: The changes of uric acid levels in subjects in single-dose and multi-dose groups of Compound I are shown in FIG. 1A (single dose of 6 mg and single dose of 10 mg), FIG. 1B (single dose of 20 mg and single dose of 30 mg), and FIG. 2 (multi-dose of 10 mg and multi-dose of 20 mg). The corresponding results are also shown in Tables 1.1, 1.2, 1.3, and 2.1, and tables 2.2, 2.3, and 2.4.

[1] = Baseline, multiple dose 10 mg once a day 7 days
[2] = Baseline, multiple dose 20 mg once a day 7 days
[3] = Day 2, multiple dose 10 mg once a day 7 days
[4] = Day 2, multiple dose 20 mg once a day 7 days
[5] = Day 11, multiple dose 10 mg once a day 7 days
[6] = Day 11, multiple dose 20 mg once a day 7 days
[7] = Days 4-6, multiple dose 10 mg once a day 7 days
[8] = Days 4-6, multiple dose 20 mg once a day 7 days
[9] = Last visit (day 14), multiple dose 10 mg once a day 7 days
[10] = Last visit (day 14), multiple dose 20 mg once a day 7 days
[11] = multiple dose 10 mg once a day 7 days
[12] = multiple dose 20 mg once a day 7 days

**Q.** How did the “Uric acid (UA) Mean (standard deviation)” value [1] turn out when COc1cccc2c1ncc1c(=O)n(C3CCC(C(=O)O)CC3)c(=O)n(-c3cccc(Cl)c3)c12 (centres unmarked) [Compound I, 4-[1-(3-chlorophenyl)-7-methoxy-2,4-dioxo-pyrimido[5,4-c]quinolin-3-yl]cyclohexanecarboxylic acid] was run?
**A.** Its value is 314.4 (84.59) μmol/L.

**Q.** And the “Uric acid (UA) Median” value [1]?
**A.** Its value is 290.0 µmol/L.

**Q.** What about the “Uric acid (UA) Minimum value” [1] of the same molecule?
**A.** Its value is 215 µmol/L.

**Q.** What about the “Uric acid (UA) maximum value” [1] of the same molecule?
**A.** The value was 452 µmol/L.

**Q.** What about the “Uric acid (UA) Mean (standard deviation)” value [2] of the same molecule?
**A.** The value was 337.2 (50.38) μmol/L.

**Q.** What about the “Uric acid (UA) Median” value [2] of the same molecule?
**A.** The value was 349.0 µmol/L.

**Q.** And the “Uric acid (UA) Minimum value” [2]?
**A.** Its value is 259 µmol/L.

**Q.** And the “Uric acid (UA) maximum value” [2]?
**A.** The value was 400 µmol/L.

**Q.** And the “Uric acid (UA) Mean (standard deviation)” value [3]?
**A.** The value was 254.9 (74.41) μmol/L.

**Q.** What about the “Uric acid (UA) Median” value [3] of the same molecule?
**A.** Its value is 248.0 µmol/L.

**Q.** And the “Uric acid (UA) Minimum value” [3]?
**A.** Its value is 155 µmol/L.

**Q.** And the “Uric acid (UA) maximum value” [3]?
**A.** The value was 397 µmol/L.

**Q.** And the “Uric acid (UA) Mean (standard deviation)” value [4]?
**A.** Its value is 221.6 (63.82) μmol/L.

**Q.** And the “Uric acid (UA) Median” value [4]?
**A.** Its value is 216.0 µmol/L.

**Q.** And the “Uric acid (UA) Minimum value” [4]?
**A.** The value was 142 µmol/L.

**Q.** What about the “Uric acid (UA) maximum value” [4] of the same molecule?
**A.** Its value is 373 µmol/L.

**Q.** And the “Uric acid (UA) Mean (standard deviation)” value [5]?
**A.** The value was 325.1 (67.57) μmol/L.

**Q.** And the “Uric acid (UA) Median” value [5]?
**A.** Its value is 314.0 µmol/L.

**Q.** What about the “Uric acid (UA) Minimum value” [5] of the same molecule?
**A.** The value was 222 µmol/L.

**Q.** And the “Uric acid (UA) maximum value” [5]?
**A.** Its value is 439 µmol/L.

**Q.** What about the “Uric acid (UA) Mean (standard deviation)” value [6] of the same molecule?
**A.** The value was 341.8 (58.10) μmol/L.

**Q.** What about the “Uric acid (UA) Median” value [6] of the same molecule?
**A.** Its value is 323.0 µmol/L.

**Q.** What about the “Uric acid (UA) Minimum value” [6] of the same molecule?
**A.** The value was 262 µmol/L.

**Q.** What about the “Uric acid (UA) maximum value” [6] of the same molecule?
**A.** The value was 460 µmol/L.

**Q.** And the “Uric acid (UA) Mean (standard deviation)” value [7]?
**A.** The value was 201.8 (58.87) μmol/L.

**Q.** What about the “Uric acid (UA) Median” value [7] of the same molecule?
**A.** The value was 204.0 µmol/L.

**Q.** And the “Uric acid (UA) Minimum value” [7]?
**A.** Its value is 119 µmol/L.

**Q.** And the “Uric acid (UA) maximum value” [7]?
**A.** The value was 307 µmol/L.

**Q.** And the “Uric acid (UA) Mean (standard deviation)” value [8]?
**A.** The value was 158.0 (51.31) μmol/L.

**Q.** What about the “Uric acid (UA) Median” value [8] of the same molecule?
**A.** Its value is 140.0 µmol/L.

**Q.** What about the “Uric acid (UA) Minimum value” [8] of the same molecule?
**A.** The value was 105 µmol/L.

**Q.** And the “Uric acid (UA) maximum value” [8]?
**A.** The value was 267 µmol/L.

**Q.** And the “Uric acid (UA) Mean (standard deviation)” value [9]?
**A.** Its value is 326.9 (74.58) μmol/L.

**Q.** And the “Uric acid (UA) Median” value [9]?
**A.** Its value is 337.0 µmol/L.

**Q.** And the “Uric acid (UA) Minimum value” [9]?
**A.** Its value is 219 µmol/L.

**Q.** What about the “Uric acid (UA) maximum value” [9] of the same molecule?
**A.** The value was 422 µmol/L.

**Q.** And the “Uric acid (UA) Mean (standard deviation)” value [10]?
**A.** Its value is 378.4 (37.55) μmol/L.

**Q.** And the “Uric acid (UA) Median” value [10]?
**A.** Its value is 376.0 µmol/L.

**Q.** And the “Uric acid (UA) Minimum value” [10]?
**A.** The value was 309 µmol/L.

**Q.** And the “Uric acid (UA) maximum value” [10]?
**A.** Its value is 440 µmol/L.

**Q.** What about the “uric acid level on the following days (days 4-6)” value (multi-dose groups) of the same molecule?
**A.** The value was “continuous decrease”.

**Q.** What about the “uric acid level the next day after administration” value (multi-dose groups, certain dose dependence) of the same molecule?
**A.** The value was “decreases obviously”.

**Q.** What about the “Uric acid (UA) Changes over baseline at last visit (on day 14), Mean (standard deviation)” value [11] of the same molecule?
**A.** Its value is 12.4 (37.22) μmol/L.

**Q.** What about the “Uric acid (UA) Changes over baseline at last visit (on day 14), Median” value [11] of the same molecule?
**A.** The value was 6.0 µmol/L.

**Q.** What about the “Uric acid (UA) Changes over baseline at last visit (on day 14), Minimum value” [11] of the same molecule?
**A.** The value was -45 µmol/L.

**Q.** And the “Uric acid (UA) Changes over baseline at last visit (on day 14), maximum value” [11]?
**A.** The value was 58 µmol/L.

**Q.** What about the “Uric acid (UA) Changes over baseline on day 2, Mean (standard deviation)” value [11] of the same molecule?
**A.** The value was −59.6 (40.77) μmol/L.

**Q.** And the “Uric acid (UA) Changes over baseline on day 2, Median” value [11]?
**A.** The value was -50.0 µmol/L.

**Q.** And the “Uric acid (UA) Changes over baseline on day 2, Minimum value” [11]?
**A.** The value was -135 µmol/L.

**Q.** What about the “Uric acid (UA) Changes over baseline on day 2, maximum value” [11] of the same molecule?
**A.** The value was 6 µmol/L.

**Q.** And the “Uric acid (UA) Changes over baseline on day 11, Mean (standard deviation)” value [11]?
**A.** Its value is 10.7 (31.86) μmol/L.

**Q.** And the “Uric acid (UA) Changes over baseline on day 11, Median” value [11]?
**A.** Its value is 15.0 µmol/L.

**Q.** And the “Uric acid (UA) Changes over baseline on day 11, Minimum value” [11]?
**A.** Its value is -52 µmol/L.

**Q.** And the “Uric acid (UA) Changes over baseline on day 11, maximum value” [11]?
**A.** Its value is 60 µmol/L.

**Q.** And the “Uric acid (UA) Changes over baseline on days 4-6, Mean (standard deviation)” value [11]?
**A.** Its value is −112.7 (57.68) μmol/L.

**Q.** What about the “Uric acid (UA) Changes over baseline on days 4-6, Median” value [11] of the same molecule?
**A.** The value was -118.0 µmol/L.

**Q.** What about the “Uric acid (UA) Changes over baseline on days 4-6, Minimum value” [11] of the same molecule?
**A.** The value was -234 µmol/L.

**Q.** And the “Uric acid (UA) Changes over baseline on days 4-6, maximum value” [11]?
**A.** The value was -35 µmol/L.

**Q.** And the “Uric acid (UA) Changes over baseline at last visit (on day 14), Mean (standard deviation)” value [12]?
**A.** The value was 41.2 (44.32) μmol/L.

**Q.** What about the “Uric acid (UA) Changes over baseline at last visit (on day 14), Median” value [12] of the same molecule?
**A.** Its value is 40.0 µmol/L.

**Q.** What about the “Uric acid (UA) Changes over baseline at last visit (on day 14), Minimum value” [12] of the same molecule?
**A.** Its value is -11 µmol/L.

**Q.** And the “Uric acid (UA) Changes over baseline at last visit (on day 14), maximum value” [12]?
**A.** Its value is 135 µmol/L.

**Q.** What about the “Uric acid (UA) Changes over baseline on day 2, Mean (standard deviation)” value [12] of the same molecule?
**A.** The value was −115.7 (55.40) μmol/L.

**Q.** What about the “Uric acid (UA) Changes over baseline on day 2, Median” value [12] of the same molecule?
**A.** Its value is -142.0 µmol/L.

**Q.** What about the “Uric acid (UA) Changes over baseline on day 2, Minimum value” [12] of the same molecule?
**A.** Its value is -184 µmol/L.

**Q.** And the “Uric acid (UA) Changes over baseline on day 2, maximum value” [12]?
**A.** The value was -26 µmol/L.

**Q.** And the “Uric acid (UA) Changes over baseline on day 11, Mean (standard deviation)” value [12]?
**A.** Its value is 4.6 (43.38) μmol/L.

**Q.** What about the “Uric acid (UA) Changes over baseline on day 11, Median” value [12] of the same molecule?
**A.** The value was 2.0 µmol/L.

**Q.** What about the “Uric acid (UA) Changes over baseline on day 11, Minimum value” [12] of the same molecule?
**A.** Its value is -52 µmol/L.

**Q.** And the “Uric acid (UA) Changes over baseline on day 11, maximum value” [12]?
**A.** The value was 67 µmol/L.

**Q.** And the “Uric acid (UA) Changes over baseline on days 4-6, Mean (standard deviation)” value [12]?
**A.** The value was −179.2 (54.55) μmol/L.

**Q.** What about the “Uric acid (UA) Changes over baseline on days 4-6, Median” value [12] of the same molecule?
**A.** The value was -175.0 µmol/L.

**Q.** What about the “Uric acid (UA) Changes over baseline on days 4-6, Minimum value” [12] of the same molecule?
**A.** Its value is -260 µmol/L.

**Q.** What about the “Uric acid (UA) Changes over baseline on days 4-6, maximum value” [12] of the same molecule?
**A.** Its value is -108 µmol/L.
